Source: ChEMBL document CHEMBL5154776, “Discovery of Potent and Orally Bioavailable Platelet-Derived Growth Factor Receptor (PDGFR) Inhibitors for the Treatment of Osteosarcoma” (J Med Chem, 2022)
pIC50: −log10 of the molar value.

Legend:
[1] = target: T1, Platelet-derived growth factor receptor beta (Homo sapiens, UniProt P09619); test: Inhibition of PDGFRbeta (unknown origin) at 100 nM by caliper mobility shift assay relative to control
[2] = target: T1, Platelet-derived growth factor receptor beta; test: Inhibition of PDGFRbeta (unknown origin) by caliper mobility shift assay
[3] = Toxicity in C57/BL6 mouse assessed as change in heart weight at 40 to 80 mg/kg/day, po dosed for 10 days; type: organism-based; details: in vivo, 240 h, dose 40-80 mg/kg/day, time 10 day
[4] = Cmax in Sprague-Dawley rat at 4 mg/kg, ip measured at 0.08 to 8 hrs by UHPLC-MS/MS analysis; type: ADME, organism-based; design: time lower 0.08 hrs, dose 4 mg/kg, time upper 8 hrs, route ip; details: in vivo
[5] = Cmax in Sprague-Dawley rat at 20 mg/kg, po measured at 0.033 to 48 hrs by UHPLC-MS/MS analysis; type: ADME, organism-based; design: dose 20 mg/kg, time upper 48 hrs, time lower 0.033 hrs, route po; details: in vivo
[6] = Half life in Sprague-Dawley rat at 4 mg/kg, ip measured at 0.08 to 8 hrs by UHPLC-MS/MS analysis; type: ADME, organism-based; details: in vivo, time 0.08-8 hrs
[7] = Half life in Sprague-Dawley rat at 20 mg/kg, po measured at 0.033 to 48 hrs by UHPLC-MS/MS analysis; type: ADME, organism-based; details: in vivo, time 0.033-48 hrs
[8] = AUC(0 to infinity) in Sprague-Dawley rat at 4 mg/kg, ip measured at 0.08 to 8 hrs by UHPLC-MS/MS analysis; type: ADME, organism-based; design: dose 4 mg/kg, time 0.08-8 hrs, route ip; details: in vivo
[9] = AUC(0 to infinity) in Sprague-Dawley rat at 20 mg/kg, po measured at 0.033 to 48 hrs by UHPLC-MS/MS analysis; type: ADME, organism-based; design: dose 20 mg/kg, time 0.033-48 hrs, route po; details: in vivo
[10] = Oral bioavailability in Sprague-Dawley rat at 20 mg/kg measured at 0.033 to 48 hrs by UHPLC-MS/MS analysis; type: ADME, organism-based; details: in vivo, time 0.033-48 hrs
[11] = Toxicity in C57/BL6 mouse assessed as tolerability at 40 to 80 mg/kg/day, po dosed for 10 days; type: organism-based; details: in vivo, 240 h, dose 40-80 mg/kg/day, time 10 day
[12] = Toxicity in C57/BL6 mouse assessed as change in body weight at 40 to 80 mg/kg/day, po dosed for 10 days; type: organism-based; details: in vivo, 240 h, dose 40-80 mg/kg/day, time 10 day
[13] = Toxicity in C57/BL6 mouse assessed as change in lung weight at 40 to 80 mg/kg/day, po dosed for 10 days; type: organism-based; details: in vivo, 240 h, dose 40-80 mg/kg/day, time 10 day
[14] = Toxicity in C57/BL6 mouse assessed as change in liver weight at 40 to 80 mg/kg/day, po dosed for 10 days; type: organism-based; details: in vivo, 240 h, dose 40-80 mg/kg/day, time 10 day
[15] = Toxicity in C57/BL6 mouse assessed as change in spleen weight at 40 to 80 mg/kg/day, po dosed for 10 days; type: organism-based; details: in vivo, 240 h, dose 40-80 mg/kg/day, time 10 day
[16] = Toxicity in C57/BL6 mouse assessed as change in kidney weight at 40 to 80 mg/kg/day, po dosed for 10 days; type: organism-based; details: in vivo, 240 h, dose 40-80 mg/kg/day, time 10 day
[17] = Hepatotoxicity in C57/BL6 mouse assessed as effect on alanine aminotransferase level at 40 to 80 mg/kg/day, po dosed for 10 days by liver function test; type: toxicity, organism-based; details: in vivo, 240 h, dose 40-80 mg/kg/day, time 10 day
[18] = Hepatotoxicity in C57/BL6 mouse assessed as effect on aspartate aminotransferase level at 40 to 80 mg/kg/day, po dosed for 10 days by liver function test; type: toxicity, organism-based; details: in vivo, 240 h, dose 40-80 mg/kg/day, time 10 day
[19] = Nephrotoxicity in C57/BL6 mouse assessed as effect on creatinine level at 40 to 80 mg/kg/day, po dosed for 10 days by kidney function test; type: toxicity, organism-based; details: in vivo, 240 h, dose 40-80 mg/kg/day, time 10 day
[20] = Toxicity in C57/BL6 mouse assessed as histopathological change in kidney at 40 to 80 mg/kg/day, po dosed for 10 days by Hematoxylin and eosin based staining analysis; type: organism-based; details: in vivo, 240 h, dose 40-80 mg/kg/day, time 10 day
[21] = Toxicity in C57/BL6 mouse assessed as histopathological change in liver at 40 to 80 mg/kg/day, po dosed for 10 days by Hematoxylin and eosin based staining analysis; type: organism-based; details: in vivo, 240 h, dose 40-80 mg/kg/day, time 10 day
[22] = Toxicity in BALB/c nude mouse xenograted with human MNNG/HOS cells assessed as effect on body weight at 15 to 30 mg/kg/day, po dosed for 14 days; type: organism-based, HOS-TE85; details: in vivo, 336 h, dose 15-30 mg/kg/day, time 14 day
[23] = Toxicity in BALB/c nude mouse xenograted with human MNNG/HOS cells assessed as effect on heart weight at 15 to 30 mg/kg/day, po dosed for 14 days; type: organism-based, HOS-TE85; details: in vivo, 336 h, dose 15-30 mg/kg/day, time 14 day
[24] = Toxicity in BALB/c nude mouse xenograted with human MNNG/HOS cells assessed as effect on lung weight at 15 to 30 mg/kg/day, po dosed for 14 days; type: organism-based, HOS-TE85; details: in vivo, 336 h, dose 15-30 mg/kg/day, time 14 day
[25] = Toxicity in BALB/c nude mouse xenograted with human MNNG/HOS cells assessed as effect on liver weight at 15 to 30 mg/kg/day, po dosed for 14 days; type: organism-based, HOS-TE85; details: in vivo, 336 h, dose 15-30 mg/kg/day, time 14 day
[26] = Toxicity in BALB/c nude mouse xenograted with human MNNG/HOS cells assessed as effect on spleen weight at 15 to 30 mg/kg/day, po dosed for 14 days; type: organism-based, HOS-TE85; details: in vivo, 336 h, dose 15-30 mg/kg/day, time 14 day
[27] = Toxicity in BALB/c nude mouse xenograted with human MNNG/HOS cells assessed as effect on kidney weight at 15 to 30 mg/kg/day, po dosed for 14 days; type: organism-based, HOS-TE85; details: in vivo, 336 h, dose 15-30 mg/kg/day, time 14 day
[28] = Toxicity in BALB/c nude mouse xenograted with human MNNG/HOS cells assessed as morphological change in liver at 15 to 30 mg/kg/day, po for 14 days by hematoxylin and eosin staining method; type: organism-based, HOS-TE85; details: in vivo, 336 h, dose 15-30 mg/kg/day, time 14 day
[29] = Toxicity in BALB/c nude mouse xenograted with human MNNG/HOS cells assessed as morphological change in kidney at 15 to 30 mg/kg/day, po for 14 days by hematoxylin and eosin staining method; type: organism-based, HOS-TE85; details: in vivo, 336 h, dose 15-30 mg/kg/day, time 14 day
U2OS = test: Antiproliferative activity against human U2OS cells assessed as reduction in cell viability incubated for 48 hrs by MTT assay
CYP2C19 = test: Inhibition of CYP2C19 in rat liver microsomes at 100 uM using voriconazole as substrate preincubated for 5 min followed by NADPH addition and measured after 40 mins by UHPLC-MS/MS analysis; type: ADME, Microsome; details: probe voriconazole, time 45 min
MG-63 = test: Antiproliferative activity against human MG-63 cells assessed as reduction in cell viability incubated for 48 hrs by MTT assay; details: MG-63, 48 h
HOS-TE85 = test: Antiproliferative activity against human MNNG/HOS cells assessed as reduction in cell viability incubated for 48 hrs by MTT assay; details: HOS-TE85, 48 h
SAOS-2 = test: Antiproliferative activity against human SAOS-2 cells assessed as reduction in cell viability incubated for 48 hrs by MTT assay; details: SAOS-2, 48 h
[30] = target: T2, Platelet-derived growth factor receptor alpha (Homo sapiens, UniProt P16234); test: Inhibition of PDGFRalpha (unknown origin) by caliper mobility shift assay
T2 sequence (P16234 whole entry): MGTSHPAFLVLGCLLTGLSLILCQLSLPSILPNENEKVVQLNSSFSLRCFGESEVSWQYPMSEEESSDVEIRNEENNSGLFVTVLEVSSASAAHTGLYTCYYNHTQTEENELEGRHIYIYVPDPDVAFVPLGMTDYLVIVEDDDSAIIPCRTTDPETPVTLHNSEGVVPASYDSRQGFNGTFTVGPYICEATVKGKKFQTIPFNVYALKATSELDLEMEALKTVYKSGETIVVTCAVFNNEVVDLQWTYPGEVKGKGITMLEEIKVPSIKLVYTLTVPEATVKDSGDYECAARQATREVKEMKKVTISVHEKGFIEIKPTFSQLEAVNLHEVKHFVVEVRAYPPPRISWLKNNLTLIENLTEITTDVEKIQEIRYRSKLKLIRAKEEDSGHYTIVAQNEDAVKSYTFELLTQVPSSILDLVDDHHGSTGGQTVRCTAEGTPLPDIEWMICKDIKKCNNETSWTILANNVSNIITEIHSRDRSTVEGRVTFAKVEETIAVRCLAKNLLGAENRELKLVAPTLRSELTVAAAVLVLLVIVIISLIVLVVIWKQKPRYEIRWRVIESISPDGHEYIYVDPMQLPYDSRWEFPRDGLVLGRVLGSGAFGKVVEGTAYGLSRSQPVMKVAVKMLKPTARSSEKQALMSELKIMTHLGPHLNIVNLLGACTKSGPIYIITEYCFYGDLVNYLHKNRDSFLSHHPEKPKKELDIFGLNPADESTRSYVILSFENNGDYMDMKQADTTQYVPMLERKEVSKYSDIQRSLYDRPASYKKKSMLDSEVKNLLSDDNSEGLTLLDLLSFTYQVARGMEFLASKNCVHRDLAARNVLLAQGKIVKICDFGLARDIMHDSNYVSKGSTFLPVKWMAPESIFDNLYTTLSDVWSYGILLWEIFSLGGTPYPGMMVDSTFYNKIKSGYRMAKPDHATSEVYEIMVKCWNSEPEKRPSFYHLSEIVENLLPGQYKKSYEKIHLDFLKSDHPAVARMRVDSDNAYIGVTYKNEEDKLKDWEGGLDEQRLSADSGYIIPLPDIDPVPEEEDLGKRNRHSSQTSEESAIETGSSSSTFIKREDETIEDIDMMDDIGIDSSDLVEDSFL

CYP2C9 = test: Inhibition of CYP2C9 in rat liver microsomes at 100 uM using diclofenac as substrate preincubated for 5 min followed by NADPH addition and measured after 40 mins by UHPLC-MS/MS analysis; type: ADME, Microsome; details: probe diclofenac, time 45 min
[31] = target: T2, Platelet-derived growth factor receptor alpha; details: dose 100.0 nM
Description: Inhibition of PDGFRalpha (unknown origin) at 100 nM by caliper mobility shift assay relative to control

T1 sequence (P09619 whole entry): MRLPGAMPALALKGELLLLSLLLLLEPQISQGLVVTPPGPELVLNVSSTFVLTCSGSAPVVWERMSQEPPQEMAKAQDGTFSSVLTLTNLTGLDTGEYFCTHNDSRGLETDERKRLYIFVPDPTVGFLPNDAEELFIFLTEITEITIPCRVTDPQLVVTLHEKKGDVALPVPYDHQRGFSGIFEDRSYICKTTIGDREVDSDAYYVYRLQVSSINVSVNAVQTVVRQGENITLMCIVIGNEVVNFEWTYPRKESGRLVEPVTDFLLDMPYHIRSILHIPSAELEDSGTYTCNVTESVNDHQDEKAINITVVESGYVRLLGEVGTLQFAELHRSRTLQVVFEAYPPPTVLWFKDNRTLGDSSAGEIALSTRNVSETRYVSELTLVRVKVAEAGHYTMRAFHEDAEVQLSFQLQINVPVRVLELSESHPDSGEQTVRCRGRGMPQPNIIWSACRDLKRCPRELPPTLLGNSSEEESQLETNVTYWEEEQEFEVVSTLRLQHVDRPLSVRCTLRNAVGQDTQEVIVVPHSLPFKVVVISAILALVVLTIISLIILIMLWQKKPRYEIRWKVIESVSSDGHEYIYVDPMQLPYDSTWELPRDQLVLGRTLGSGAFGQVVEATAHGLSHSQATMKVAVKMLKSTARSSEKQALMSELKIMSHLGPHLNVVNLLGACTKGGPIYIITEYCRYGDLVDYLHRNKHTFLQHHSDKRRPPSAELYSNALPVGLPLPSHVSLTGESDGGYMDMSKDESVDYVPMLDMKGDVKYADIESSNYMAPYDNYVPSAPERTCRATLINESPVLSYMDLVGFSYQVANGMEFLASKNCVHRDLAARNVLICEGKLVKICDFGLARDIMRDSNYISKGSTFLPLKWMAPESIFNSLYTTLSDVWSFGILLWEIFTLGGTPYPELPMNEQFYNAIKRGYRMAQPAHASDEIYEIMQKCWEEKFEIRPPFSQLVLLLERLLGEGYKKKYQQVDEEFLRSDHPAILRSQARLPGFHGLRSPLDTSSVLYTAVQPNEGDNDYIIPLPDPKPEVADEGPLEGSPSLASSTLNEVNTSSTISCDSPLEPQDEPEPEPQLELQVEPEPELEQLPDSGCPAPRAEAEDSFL

SMILES: Cc1cnc(Nc2ccc(N3CCN(C)CC3)cc2)nc1Nc1ccc2[nH]ncc2c1
- inhibition [1]: 84.1%

SMILES: Cc1cnc(Nc2ccc(N3CCOCC3)cc2)nc1Nc1ccc2cn[nH]c2c1
- pIC50 [2]: 8.16

SMILES: COc1cc(N2CCN(C)CC2)ccc1Nc1ncc(C)c(Nc2ccc3cn[nH]c3c2)n1
- pIC50 [2]: 7.36

SMILES: CCN1CCN(c2ccc(Nc3ncc(C)c(Nc4ccc5cn[nH]c5c4)n3)cc2OC)CC1.Cl
- Activity [3]: Non-Toxic
- Cmax [4]: 78.3 ng/mL
- Cmax [5]: 75.2 ng/mL
- half-life [6]: 2.86 h
- half-life [7]: 2.12 h
- AUC(0-inf) [8]: 211 ng·h/mL
- AUC(0-inf) [9]: 665 ng·h/mL
- bioavailability [10]: 62.9%
- Activity [11]: Non-Toxic
- Activity [12]: Non-Toxic
- Activity [13]: Non-Toxic
- Activity [14]: Non-Toxic
- Activity [15]: Non-Toxic
- Activity [16]: Non-Toxic
- Activity [17]: Non-Toxic
- Activity [18]: Non-Toxic
- Activity [19]: Non-Toxic
- Activity [20]: Non-Toxic
- Activity [21]: Non-Toxic
- Activity [22]: Non-Toxic
- Activity [23]: Non-Toxic
- Activity [24]: Non-Toxic
- Activity [25]: Non-Toxic
- Activity [26]: Non-Toxic
- Activity [27]: Non-Toxic
- Activity [28]: Non-Toxic
- Activity [29]: Non-Toxic

SMILES: Cc1cnc(Nc2ccc(N3CCN(C)CC3)cc2)nc1Nc1ccc2c(C)n[nH]c2c1
- inhibition [1]: 98%

SMILES: Cc1cnc(Nc2ccc(C(=O)NCCN3CCOCC3)cc2)nc1Nc1ccc2cn[nH]c2c1
- pIC50 [2]: 7.80

SMILES: Cc1cnc(Nc2ccc(N3CCN(C)CC3)cc2)nc1Nc1ccc2cccnc2c1
- inhibition [1]: 91%

SMILES: CCN1CCN(c2ccc(Nc3ncc(C)c(Nc4ccc5cn[nH]c5c4)n3)cc2OC)CC1
- pIC50 (U2OS): 6.38
- inhibition at 40 min, 100 µM (CYP2C19): 45.6%
- pIC50 (MG-63): 6.36
- pIC50 (HOS-TE85): 5.99
- pIC50 (SAOS-2): 6.43
- pIC50 [30]: 8.62
- pIC50 [2]: 9.05
- inhibition at 40 min, 100 µM (CYP2C9): 45.6%

SMILES: Cc1cc(Nc2ccc3cn[nH]c3c2)nc(Nc2ccc(N3CCN(C)CC3)cc2)n1
- inhibition [1]: 7.2%

SMILES: CCN1CCN(c2ccc(Nc3ncc(C)c(Nc4ccc5cn[nH]c5c4)n3)cc2)CC1
- pIC50 (U2OS): 6.26
- pIC50 (MG-63): 6.02
- pIC50 (HOS-TE85): 5.85
- pIC50 (SAOS-2): 6.02
- pIC50 [2]: 8.12

SMILES: CN1CCN(c2ccc(Nc3ncc(F)c(Nc4ccc5cn[nH]c5c4)n3)cc2)CC1
- inhibition [1]: 94.4%

SMILES: Cc1cnc(Nc2ccc(N3CCN(C)CC3)cc2)nc1Nc1ccc2nccnc2c1
- inhibition [1]: 74.1%

SMILES: Cc1cnc(Nc2ccc(N3CCC(F)(F)CC3)cc2)nc1Nc1ccc2cn[nH]c2c1
- pIC50 [2]: 7.04

SMILES: Cc1cnc(Nc2ccc(C(=O)N3CCN(C)CC3)cc2)nc1Nc1ccc2cn[nH]c2c1
- pIC50 [2]: 7.32

SMILES: Cc1cnc(Nc2ccc(N3CCN(C)CC3)cc2)nc1Nc1ccc2c(c1)CCCC2
- inhibition [1]: 90.4%

SMILES: COc1cc(N2CCC(N3CCN(C)CC3)CC2)ccc1Nc1ncc(C)c(Nc2ccc3cn[nH]c3c2)n1
- pIC50 [2]: 7.25

SMILES: CN1CCN(c2ccc(Nc3ncc(Br)c(Nc4ccc5cn[nH]c5c4)n3)cc2)CC1
- inhibition [1]: 97.6%
- inhibition [31]: 89.9%
